pEC50: −log10 of the molar value.
Legend:
A2780 = test: Cytotoxicity against human A2780 cells after 96 hrs by sulforhodamine-B assay; assay type: functional, cell-based; conditions: A2780, 96 h
MCF7 = test: Cytotoxicity against human MCF7 cells after 96 hrs by sulforhodamine-B assay; assay type: functional, cell-based; conditions: MCF7, 96 h
NIH3T3 = test: Cytotoxicity against mouse NIH/3T3 cells after 96 hrs by sulforhodamine-B assay; assay type: cell-based; conditions: NIH3T3, 96 h
A549 = test: Cytotoxicity against human A549 cells after 96 hrs by sulforhodamine-B assay; assay type: functional, cell-based; conditions: A549, 96 h
FaDu = test: Cytotoxicity against human FADU cells after 96 hrs by sulforhodamine-B assay; assay type: functional, cell-based
HT-29 = test: Cytotoxicity against human HT-29 cells after 96 hrs by sulforhodamine-B assay; assay type: functional, cell-based; conditions: HT-29, 96 h
518A2 = test: Cytotoxicity against human 518A2 cells after 96 hrs by sulforhodamine-B assay; assay type: functional, cell-based; conditions: 518A2, 96 h

Compound | pEC50 (A2780) | pEC50 (MCF7) | pEC50 (NIH3T3) | pEC50 (A549) | pEC50 (FaDu) | pEC50 (HT-29) | pEC50 (518A2)
C=CCN(CC(=O)NC(C)(C)C)C(=O)[C@]12CCC(C)(C)C[C@H]1C1=CC[C@@H]3[C@@]4(C)CC[C@H](O)C(C)(C)[C@@H]4CC[C@@]3(C)[C@]1(C)CC2 | 4.98 | 5.15 | 4.81 | 4.56 | 4.59 | 5.00 | 4.61
CC(=O)O[C@H]1CC[C@]2(C)[C@H]3CC=C4[C@@H]5CC(C)(C)CC[C@]5(C(=O)N(CC(=O)NCc5ccccc5)C(C)C)CC[C@@]4(C)[C@]3(C)CC[C@H]2C1(C)C | 5.08 | 5.01 | 4.99 | 4.83 | 5.00 | 4.85 | 4.68
CC1(C)CC[C@]2(C(=O)N(CC(=O)NCc3ccccc3)Cc3ccccc3)CC[C@]3(C)C(=CC[C@@H]4[C@@]5(C)CC[C@H](O)C(C)(C)[C@@H]5CC[C@]43C)[C@@H]2C1 | < 4.52 | < 4.52 | < 4.52 | – | < 4.52 | < 4.52 | < 4.52
CC(=O)O[C@@H]1C[C@]2(C)[C@H]3CC=C4[C@@H]5CC(C)(C)CC[C@]5(C(=O)O)CC[C@@]4(C)[C@]3(C)CC[C@H]2C(C)(C)[C@H]1OC(C)=O | 4.98 | 5.80 | 4.91 | 4.72 | 4.67 | 4.59 | –
CCCCNC(=O)CN(Cc1ccoc1)C(=O)[C@]12CCC(C)(C)C[C@H]1C1=CC[C@@H]3[C@@]4(C)CC[C@H](OC(C)=O)C(C)(C)[C@@H]4CC[C@@]3(C)[C@]1(C)CC2 | 5.25 | 4.86 | < 4.52 | 4.79 | 4.75 | < 4.52 | 4.95
CC(=O)O[C@H]1CC[C@]2(C)[C@H]3CC=C4[C@@H]5CC(C)(C)CC[C@]5(C(=O)N(CC(=O)NC(C)(C)C)Cc5cccc(F)c5)CC[C@@]4(C)[C@]3(C)CC[C@H]2C1(C)C | 4.98 | < 4.52 | < 4.52 | < 4.52 | < 4.52 | < 4.52 | < 4.52
CC(=O)O[C@@H]1C[C@]2(C)[C@H]3CC=C4[C@@H]5CC(C)(C)CC[C@]5(C(=O)OCC(=O)NCc5ccccc5)CC[C@@]4(C)[C@]3(C)CC[C@H]2C(C)(C)[C@H]1OC(C)=O | 6.00 | 5.44 | 5.70 | 5.49 | 5.14 | 5.31 | 5.37
C=CCN(CC(=O)NC(C)(C)C)C(=O)[C@]12CCC(C)(C)C[C@H]1C1=CC[C@@H]3[C@@]4(C)CC[C@H](OC(C)=O)C(C)(C)[C@@H]4CC[C@@]3(C)[C@]1(C)CC2 | 4.90 | 4.92 | < 4.52 | 4.62 | < 4.52 | < 4.52 | 4.65
CC(C)NC(=O)CN(Cc1ccoc1)C(=O)[C@]12CCC(C)(C)C[C@H]1C1=CC[C@@H]3[C@@]4(C)CC[C@H](O)C(C)(C)[C@@H]4CC[C@@]3(C)[C@]1(C)CC2 | 5.23 | 5.31 | 5.26 | – | 5.10 | 5.31 | 5.26
CC(=O)O[C@H]1CC[C@]2(C)[C@H]3CC=C4[C@@H]5CC(C)(C)CC[C@]5(C(=O)N(CC(=O)NC(C)C)Cc5ccoc5)CC[C@@]4(C)[C@]3(C)CC[C@H]2C1(C)C | 5.44 | 4.78 | 5.00 | 5.12 | 4.90 | 5.02 | 5.19
CC(=O)O[C@H]1CC[C@]2(C)[C@H]3CC=C4[C@@H]5CC(C)(C)CC[C@]5(C(=O)N(CC(=O)NCc5ccccc5)Cc5ccccc5)CC[C@@]4(C)[C@]3(C)CC[C@H]2C1(C)C | 5.27 | < 4.52 | < 4.52 | < 4.52 | 4.69 | < 4.52 | 4.87
CC(=O)O[C@H]1CC[C@]2(C)[C@H]3CC=C4[C@@H]5CC(C)(C)CC[C@]5(C(=O)N(CC(=O)NCc5ccccc5)Cc5ccoc5)CC[C@@]4(C)[C@]3(C)CC[C@H]2C1(C)C | 5.20 | 4.82 | < 4.52 | < 4.52 | 4.66 | < 4.52 | 4.80
CC(=O)O[C@@H]1C[C@]2(C)[C@H]3CC=C4[C@@H]5CC(C)(C)CC[C@]5(C(=O)N(CC(=O)NCc5ccccc5)Cc5ccoc5)CC[C@@]4(C)[C@]3(C)CC[C@H]2C(C)(C)[C@H]1OC(C)=O | 5.68 | 5.47 | 5.19 | 5.27 | 4.85 | 5.00 | 4.88
CC(=O)O[C@H]1CC[C@]2(C)[C@H]3CC=C4[C@@H]5CC(C)(C)CC[C@]5(C(=O)OCC(=O)NC(C)(C)C)CC[C@@]4(C)[C@]3(C)CC[C@H]2C1(C)C | 5.06 | 4.89 | 4.70 | 4.88 | 4.90 | 4.56 | 4.88
